The source of these data is ChEMBL document CHEMBL1122472, “Anticoccidial activity of 1-phenyluracils” (1983).

For this test, the system named is Eimeria tenella. Nature of the test: Minimum effective concentration (MEC) against Eimeria tenella to prevent infection and to maintain zero lesion scores. The class given is functional. The following applies: read-out: MEC.

On to `Cc1cc(-n2ccc(=O)[nH]c2=O)cc(Cl)c1Sc1ccc(Cl)cc1`, for which the minimal effective concentration worked out at 60 µg/mL.

Consider `Cc1cc(-n2ccc(=O)[nH]c2=O)cc(Cl)c1S(=O)(=O)c1ccc(Cl)cc1`, for which the minimal effective concentration was less than 125 µg/mL.

`Cc1cc(C)cc(-n2ccc(=O)[nH]c2=O)c1`: the minimal effective concentration was more than 250 µg/mL.

Regarding `O=c1ccn(-c2cc(Cl)cc(Cl)c2)c(=O)[nH]1`, the minimal effective concentration amounted to 125 µg/mL.

As for `Cc1cc(-n2ccc(=O)[nH]c2=O)cc(C)c1Sc1ccc(Cl)cc1`, the minimal effective concentration turned out to be 500 µg/mL.

With `O=c1ccn(-c2ccc(Oc3ccc(Cl)cc3)c(Cl)c2)c(=O)[nH]1`, the minimal effective concentration is more than 500 µg/mL.
